Experimental data reported in paper PMC6277767, “Broad and Region-Specific Impacts of the Synthetic Cannabinoid CP 55,940 in Adolescent and Adult Female Mouse Brains” (Frontiers in Molecular Neuroscience, 2018).

Tested on: CD1 female mouse brain lipidome
Test: Brain-region lipid levels (HPLC/MS/MS lipidomics) 2 h after single i.p. 3 mg/kg CP 55,940 vs vehicle
Assay type: in vivo
Parameters: N-arachidonoyl phenylalanine level, Mean / N-stearoyl tryptophan level, Mean / N-stearoyl proline level, Mean / N-stearoyl leucine level, Mean / N-stearoyl phenylalanine level, Mean / N-stearoyl serine level, Mean / N-stearoyl methionine level, Mean: unit: moles per gram
Conditions: brainstem, PND 50, 3 mg/kg CP 55,940
Protocol: The Bloomington Institutional Animal Care and Use Committee of Indiana University reviewed and approved the animal procedures. Female mice from the CD1 strain were utilized to match our study examining THC’s effects on the brain lipidome ([Leishman et al., 2018]). Mice were given a single i.p. injection of either 3 mg/kg CP or 1:1:18 cremophor:ethanol:saline vehicle (please refer to the section “3 mg/kg CP Is Relevant for Synthetic Cannabinoid Abuse and Has Stronger Effects on the Female Mouse Brain Lipidome During Adolescence” for a justification of dose and use of female mice). Three different age groups were given injections: PND 35 and PND 50 adolescents, and adult mice (PND 113). At least eight mice in each age group received CP and at least eight received vehicle. Matching the THC study time course ([Leishman et al., 2018]), mice were sacrificed via rapid decapitation 2 h after injection. Brains were immediately removed and flash-frozen in liquid nitrogen, and then stored at -80°C until dissections were performed. Brains were dissected on an ice-cold dissection plate into the following regions: STR, HIPP, CER, THAL, CTX, HYP, MID, and STEM. These abbreviations for these brain areas will be used exclusively when discussing the results generated by these specific dissections. Each dissected area was immediately placed in liquid nitrogen and then stored at -80°C until used for lipid extraction.
Tissue extracts were performed as previously described ([Bradshaw et al., 2006]; [Stuart et al., 2013]; [Raboune et al., 2014]; [Leishman et al., 2016a],[b], [2017], [2018]). First, samples were shock frozen in liquid nitrogen, weighed, and transferred to a centrifuge tube. The mass of the largest sample was multiplied by 50 to determine how many milliliters of HPLC-grade methanol (Fisher, Fair Lawn, NJ, United States) to add. Then, samples were spiked with 500 pmol deuterium-labeled NAGly (d8NAGly; Cayman Chemical, Ann Arbor, MI, United States). Samples were placed on ice in darkness for 2 h then individually homogenized and centrifuged at 19,000 × g for 20 min at 20°C. Supernatants were diluted with HPLC water (purified in house) to make a solution of 75% water, 25% supernatant. Lipids were partially purified on C18 solid phase extraction columns (Agilent, Palo Alto, CA, United States). A series of four elutions with 1.5 mL of 60%, 75%, 85%, and 100% methanol were collected ([Stuart et al., 2013]; [Leishman et al., 2016a],[b], [2018]).
As previously described ([Bradshaw et al., 2006]; [Tan et al., 2006]; [Smoum et al., 2010]; [Stuart et al., 2013]; [Tortoriello et al., 2013]; [Raboune et al., 2014]; [Leishman et al., 2016a],[b], [2017], [2018]), samples were analyzed using an Applied Biosystems API 3000 triple quadrupole mass spectrometer with electrospray ionization (Foster City, CA, United States). Using an Agilent XDB-C18 reversed phase analytical column and optimized mobile phase gradients, 20 μL from each elution were chromatographed. Two Shimadzu 10ADvp pumps (Columbia, MD, United States) provided the pressure for gradient elution. Mobile phase A: 20% methanol, 80% water (v/v) and 1 mM ammonium acetate (Sigma, St. Louis, MO, United States). Mobile phase B: 100% methanol, 1 mM ammonium acetate. Every method run began with 0% mobile phase B, reached 100% mobile phase B flowing at 0.2 mL/min, and gradually returned to 0% mobile phase B.
This screening library will be referred to as the lipidome when discussing data from this study. HPLC/MS/MS data were analyzed using Analyst software (Applied Biosystems) ([Bradshaw et al., 2006]; [Tan et al., 2006]; [Stuart et al., 2013]; [Tortoriello et al., 2013]; [Raboune et al., 2014]; [Leishman et al., 2016a],[b], [2017], [2018]). Chromatograms (Supplementary Figure 3) were generated by determining the retention time of analytes from the analytical column with a [M-1] or [M+1] parent peak and a fragmentation peak corresponding to the programmed values. […]

SMILES: CCCCCCC(C)(C)c1ccc([C@@H]2C[C@H](O)CC[C@H]2CCCO)c(O)c1 [CP 55,940]
- N-arachidonoyl glycine level, Mean: 9.26E-12
- N-arachidonoyl methionine level, Mean: PISSR
- N-arachidonoyl phenylalanine level, Mean: 3.18E-13
- N-arachidonoyl proline level, Mean: BDL
- N-arachidonoyl serine level, Mean: 5.36E-12
- N-arachidonoyl taurine level, Mean: 1.14E-11
- N-arachidonoyl tryptophan level, Mean: BDL
- N-arachidonoyl tyrosine level, Mean: 2.42E-13
- N-docosahexaenoyl GABA level, Mean: 9.05E-13
- N-docosahexaenoyl alanine level, Mean: PISSR
- N-docosahexaenoyl ethanolamine level, Mean: 3.73E-11
- N-docosahexaenoyl glycine level, Mean: 1.5E-12
- N-docosahexaenoyl leucine level, Mean: 1.24E-13
- N-docosahexaenoyl methionine level, Mean: PISSR
- N-docosahexaenoyl phenylalanine level, Mean: 1.89E-13
- N-docosahexaenoyl proline level, Mean: BDL
- N-docosahexaenoyl serine level, Mean: 1.33E-11
- N-docosahexaenoyl tryptophan level, Mean: BDL
- N-docosahexaenoyl tyrosine level, Mean: 4.65E-13
- N-docosahexaenoyl valine level, Mean: BDL
- N-linoleoyl GABA level, Mean: 6.01E-13
- N-linoleoyl alanine level, Mean: 1.01E-13
- N-linoleoyl ethanolamine level, Mean: 3.38E-11
- N-linoleoyl glycine level, Mean: 4.12E-13
- N-linoleoyl leucine level, Mean: 4.41E-14
- N-linoleoyl methionine level, Mean: PISSR
- N-linoleoyl phenylalanine level, Mean: PISSR
- N-linoleoyl proline level, Mean: BDL
- N-linoleoyl serine level, Mean: 6.34E-11
- N-linoleoyl tryptophan level, Mean: BDL
- N-linoleoyl tyrosine level, Mean: PISSR
- N-linoleoyl valine level, Mean: BDL
- N-nervonoyl valine level, Mean: BDL
- N-oleoyl GABA level, Mean: 3.95E-12
- N-oleoyl alanine level, Mean: 1.3E-12
- N-oleoyl dopamine level, Mean: BDL
- N-oleoyl ethanolamine level, Mean: 7.29E-11
- N-oleoyl glycine level, Mean: 5.38E-12
- N-oleoyl leucine level, Mean: 4.93E-13
- N-oleoyl methionine level, Mean: 1.84E-13
- N-oleoyl phenylalanine level, Mean: 7.71E-13
- N-oleoyl proline level, Mean: BDL
- N-oleoyl serine level, Mean: 1.1E-10
- N-oleoyl tryptophan level, Mean: BDL
- N-oleoyl tyrosine level, Mean: 2.91E-13
- N-oleoyl valine level, Mean: 6.02E-14
- N-palmitoyl GABA level, Mean: 6.41E-12
- N-palmitoyl alanine level, Mean: 3.07E-12
- N-palmitoyl ethanolamine level, Mean: 6.28E-11
- N-palmitoyl glycine level, Mean: 1.47E-11
- N-palmitoyl leucine level, Mean: 1.11E-12
